Assay results reported in PMC6977461 (Chemical Science, 2019).
*1 amine or outer side, *2 acyl side, *3 side chain or, on linkers, in order; H or OH if unused. The star is where a group is joined. X1 = C[C@@H](CN*)NC(=O)[C@@H](N)Cc1c[nH]cn1; CO = O=C([*:1])[*:2]

Key:
[1] = target: T1, GLP-1R (Homo sapiens, UniProt P43220); test: signal bias, cAMP vs β-arrestin-2, PathHunter CHO-GLP-1R cells (operational model); type: cell-based; design: host or cells: PathHunter CHO-GLP-1R-βarr2 cells; conditions: relative to GLP-1-NH2 (2), n = 5
Method: signal measured at 665 nm by that measured at 620 nm (ratio). The results are expressed as a percent […]
tested in each experiment at several concentrations to generate a concentration-response curve from which its EC50 value and SE are calculated using GraphPad Prism.
In vitro pharmacology on immortalised CHO-GLP-1R cells (EC50: Method C3) PathHunter CHO-GLP-1R cells were stimulated for 30 min at 37°C with indicated concentration of agonist in serum free medium without phosphodiesterase inhibitors. The reaction was terminated by addition of cAMP detection reagents (cAMP Dynamic 2, Cisbio) and read by HTRF.
β-arrestin-2 recruitment assay […]
agonist in serum free medium. The reaction was terminated by addition of PathHunter detection reagents (DiscoverX) and luminescent signal recorded.
Calculation of signal bias
Biased signalling was quantified using a modified form of the operational model.[6] LogR values were calculated for each ligand in each assay, and ∆LogR were determined by subtracting from the […]
Bias was then determined as ∆∆LogR by subtracting ∆LogR for […]

[2] = target: T1, GLP-1R; test: cAMP production functional assay in HEK293 cells transfected with GLP-1R (Method C1); type: cell-based; design: host or cells: HEK-293T
Method: (§2)  HEK-293T cells (Multispan inc., lot#.DC1267-062017) were suspended in cell culture media
(§3) (DMEM 1X + GlutaMAX (Gibco 31966-021)) complemented with FBS 10% (Sigma Aldrich
(§4)  βTC6 cells were suspended in HBSS buffer (Invitrogen) complemented with 20 mM HEPES (pH
(§5) In vitro pharmacology on HEK-293T cells (EC50: Method C1)
(§6) cells (Multispan inc., lot#.DC1267-062017) was determined by measuring their effects on cAMP
(§7) production using the HTRF detection method (performed by UREkA SARL). The cells were distributed
(§8) in 384-well microplates at a density of 1.0x10^4 cells/well. Stock solutions of the test compounds or the
(§9) reference agonist were prepared at a concentration of 1 mM in DMSO. Then, compounds to be tested
(§10) were diluted in cell culture media and transferred to the plate containing the cells to reach final assay

[3] = mouse plasma degradation assay (Methods MP1-MP3); type: in vitro ADME; conditions: mouse plasma diluted 1/1 with PBS; mouse plasma/PBS pH 7.4 (1/1), 5 µM, 37 °C, acetonitrile quench, LC-MS extracted ion chromatogram; MP1 for 2-8, MP2 for 9-11, MP3 for 12-14; mean, n = 3; read-out: Mouse plasma t1/2 (converted)
Method: The oligomer was then diluted 1/50 with a solution of plasma/PBS pH 7.4 (1/1) to afford a final concentration of 5μM and incubated at 37°C. […] (t = 0 min was determined using the reaction without plasma). The samples were frozen at -80°C before analysis. […] The supernatant was analyzed by LC-MS. The time course of oligomer degradation was determined by integrating the area of the peak in the extracted ion chromatogram. […] The oligomer was then diluted 1/50 with a solution of plasma/PBS pH 7.4 (1/1) to afford a final concentration of 5μM and incubated at 37°C. […] The oligomer was then diluted 1/50 with a solution of plasma/PBS pH 7.4 (1/1) to afford a final concentration of 5μM and incubated at 37°C. […] Animals. […] A standard chow diet (RM1 (E) 801492, SDS) and tap water were provided ad libitum. All animal protocols done by Physiogenex S.A.S were reviewed and approved by the local (Comité […] national ([…]

[4] = target: T2, mouse GLP-1 receptor (Mus musculus, UniProt O35659); test: cAMP production in βTC6 cells expressing GLP-1R endogenously (Method C2); type: cell-based
T2 construct: βTC6 cells which express GLP-1R endogenously; host or cells: βTC6 cells
T2 sequence (O35659 22-463): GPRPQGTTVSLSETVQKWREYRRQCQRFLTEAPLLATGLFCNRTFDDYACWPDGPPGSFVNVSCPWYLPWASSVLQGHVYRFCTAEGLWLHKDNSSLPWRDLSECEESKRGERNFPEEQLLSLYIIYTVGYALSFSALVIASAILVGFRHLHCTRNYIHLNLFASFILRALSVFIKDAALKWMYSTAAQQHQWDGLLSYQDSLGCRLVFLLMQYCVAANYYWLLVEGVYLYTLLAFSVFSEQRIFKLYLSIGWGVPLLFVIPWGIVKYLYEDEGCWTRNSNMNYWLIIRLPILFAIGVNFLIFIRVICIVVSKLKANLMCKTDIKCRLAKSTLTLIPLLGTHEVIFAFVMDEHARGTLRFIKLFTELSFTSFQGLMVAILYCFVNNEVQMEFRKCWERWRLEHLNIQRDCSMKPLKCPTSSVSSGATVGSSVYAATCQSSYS
Method: as §2, §3, §4, §5, §6, §7, §8, §9, §10

[5] = system: C57BL/6J mice; test: IPGTT in healthy mice 3, 6 or 9 h after i.v. dosing; type: in vivo; conditions: 1 µg per mouse (10 nmol kg-1) i.v., glucose 2 g kg-1 i.p., fasted 9 h, n = 6, versus vehicle
Description: Supérieur et de la Recherche) ethics committees (protocol number 05049-06). For the dose-response study, animal procedures were approved by British Home Office under the UK Animal (Scientific Procedures) Act 1986 (Project Licence 70/7596). Lean male C57Bl/6J mice (6-8 weeks of age, body […]
schedule, lights on at 07:00). Ad libitum access to water and normal chow (RM1, Special Diet Services) was provided unless otherwise stated. Mice were housed in groups of five. For the pharmacokinetics studies performed by TechMedILL service (PCBIS platform, CNRS UMS3286), mice were housed in polycarbonate cages (PCT2L12SHT, Allentown) enriched with play tunnels throughout the […]
environment (22 ± 1 °C) with a relative humidity (50 ± 10 %) and a normal 12 hours light cycle (at 8:00 pm lights off). A standard chow diet (A04, SAFE, France) and tap water were provided ad libitum. […]
After the acclimation period of 5 days, 20-25 g male C57Bl/6J mice 8 weeks old (Charles River laboratories) were randomized into groups (6 mice per group) according to their body weight. The mice were acutely treated with vehicle or 1 µg per mouse (10 nmol kg-1) of oligomers via i.v. injections (formulation: 4 µg mL-1 in PBS 1×) IPGTTs (glucose 2 g kg-1 i.p.) were performed after 3 or 6 hours of […]
(§1) Blood glucose was measured before the administration of […]
as §1

[6] = system: INS-1 832/3 cells; test: insulin secretion in vitro in INS-1 832/3 cells; type: cell-based; conditions: 16 h stimulation at 11 mM glucose, n = 5, versus non-ureido parents
[7] = target: T3, SNAP-tagged human GLP-1R (Homo sapiens, UniProt P43220); test: SNAP-GLP-1R internalization by confocal microscopy in INS-1 832/3 cells; type: cell-based; conditions: 10 nM ligand, 30 min, versus non-ureido peptides
T3 construct: host or cells: INS-1 832/3 cells with endogenous GLP-1R deleted by CRISPR/Cas9
T3 sequence (P43220 24-463): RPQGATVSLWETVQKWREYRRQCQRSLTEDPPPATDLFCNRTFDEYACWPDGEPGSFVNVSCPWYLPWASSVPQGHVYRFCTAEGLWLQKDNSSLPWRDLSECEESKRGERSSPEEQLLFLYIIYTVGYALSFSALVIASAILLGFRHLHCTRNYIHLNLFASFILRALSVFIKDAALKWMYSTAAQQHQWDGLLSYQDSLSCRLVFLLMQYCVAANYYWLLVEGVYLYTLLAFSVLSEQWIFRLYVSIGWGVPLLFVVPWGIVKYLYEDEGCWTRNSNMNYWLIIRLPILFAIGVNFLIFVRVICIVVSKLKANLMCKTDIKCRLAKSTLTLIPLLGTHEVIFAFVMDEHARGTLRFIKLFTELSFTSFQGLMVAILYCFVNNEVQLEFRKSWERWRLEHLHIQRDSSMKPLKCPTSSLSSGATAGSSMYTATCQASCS

T1 sequence (P43220 24-463): as above

{X1-CO}-EGTFTSDLSKQLEEEAVRLFIEWLKNGGPSSGAPPSKKKKKK-NH2 [compound 14]
signal bias (cAMP vs β-arrestin-2) [1]: strong preference for cAMP signalling | EC50 ([2]; HEK-293T cells exogenously expressing human GLP-1R, cAMP by HTRF, 10 min at 37 °C, Method C1, mean, n = 3 (2: n = 6), read-out: EC50 (GLP-1R potency)): 1.1 pM | Potency (%), percentage of potency compared to GLP-1-NH2 ([2]; from EC50 in HEK293 GLP-1R cAMP assay): 287% | half-life at 5 µM [3]: 6.6 h | Potency (%), Table S1 ([4]; from EC50 in βTC6 cAMP assay, footnote: compare to GLP-1-NH2 (2)): 118% | EC50 ([4]; read-out: EC50 (GLP-1R potency), Table S1): 90 pM | blood glucose control, IPGTT 9 h after dosing [5]: strong ability to control blood glucose levels | insulin release in vitro [6]: significantly increased insulin release | endocytosis of the GLP-1R [7]: noticeably reduced
